According to patent US9925166B2, “Methods of treating an overweight or obese subject” (Zafgen, Inc., priority 2008, dated 2018):
“And” between values parts separate entries of the source, which are not always exact repeats. Identical values can stand only once.

Assays:
[1] = mouse, 33 mg/kg/day; Ingbar et al.; cited from earlier work
lean mice = experiment: Oral and subcutaneous fumagillin in lean mice (Examples 3 and 4); assay type: in vivo, C57BLI6NTac mice
From the text: (§1) Mice were divided into two groups, a diet-induced obese group and a lean group. For the diet-induced obese group, fifteen week-old C57BL/6NTac mice, maintained prior to and during the study on a diet containing 60% fat on a kilocalorie basis, were further separated into six groups, eight animals per group. Average body weight of these diet-induced obese mice was 38 g at the start of the study. For the lean group, fifteen week-old C57BLI6NTac mice, maintained on a diet containing 4.3% by weight fat prior to and during the study, were further separated into two groups, eight animals per group. Average body weight of these lean mice was 28 g at the start of the study.
(§2) Fumagillin was administered to three of the diet-induced obese mice groups by oral gavage as a solution in 10% DMSO, at doses of 0.1 mg/kg/day, 0.3 mg/kg/day, and 1 mg/kg/day respectively. A fourth diet-induced obese mice group received the 10% DMSO vehicle only by oral gavage. A group of lean mice was administered fumagillin by oral gavage as a solution in 10% DMSO at a dose of 1 mg/kg/day. Treatments were administered daily for 11 days.
A study was undertaken to analyze whether oral administration compared to subcutaneous administration of fumagillin affected weight loss in diet-induced obese mice. Mice were divided into two groups, a diet-induced obese group and a lean group. […]

[2] = Plasma concentration after oral administration in a non-enterically coated capsule (Example 7); assay type: in vivo, Sprague-Dawley rats; details: 30 mg/kg capsule oral
Description: A study was undertaken to investigate absorption of fumagillin orally administered in a capsule. Five male Sprague-Dawley rats were fasted, and were then each orally administered a non-enterically coated capsule containing 30 mg/kg of fumagillin. […] (graphically illustrated as 0.17), 20 min. (graphically illustrated as 0.33), 30 min. […]

[3] = humans, 30 mg/day to 60 mg/day; Molina et al., Seneca; cited from earlier work
diet-induced obese mice [4] = experiment: 47-day weight and food intake study in diet-induced obese mice (Example 5); assay type: in vivo, C57BL/6NTac mice; details: 1 mg/kg/day oral gavage
Description: Mice were divided into two groups, a diet-induced obese group and a lean group (control). For the diet-induced obese group, C57BL/6NTac mice maintained prior to and during the study on a diet containing 60% fat on a kilocalorie basis were further divided into two groups, fifteen mice per group. Average body weight of these diet-induced obese mice was 40 g at the start of the study. […] Daily food consumption was also recorded.
Fumagillin was administered to one of the diet-induced obese mice groups by oral gavage as a solution in 10% DMSO, at dose of 1 mg/kg/day, for 47 days. The other diet-induced obese mice group and the lean mice group were not administered anything.

MetAP-2 = biological target: T1, MetAP-2 (Mus musculus, UniProt O08663); experiment: ELISA assay of MetAP-2 binding (free MetAP-2) in adipose tissue lysates of dosed diet-induced obese mice; details: fumagillin orally 3 mg/kg or 10 mg/kg; diet-induced obese mice; FIG. 1
T1 construct: from tissue; host or cells: adipose tissue of diet-induced obese mice
Description: Diet-induced obese mice were orally (p.o.) administered fumagillin (3 mg/kg or 10 mg/kg; Medivet), subcutaneously administered (s.c.) TNP-470 (1 mg/kg, 3 mg/kg, 10 mg/kg, or 30 mg/kg; synthesized by standard semi-synthetic processes as described in European Patent EP 0 357 061), or administered a solution of 10% dimethyl sulfoxide (DMSO; control; Sigma-Aldrich). Mice were sacrificed and adipose tissue samples were obtained.
An ELISA assay of MetAP-2 binding was conducted with tissue lysates prepared from the adipose tissue samples. The MetAP-2 ELISA is a quantitative assay to determine the amount of free MetAP-2 in tissue or cell lysates, i.e., MetAP-2 not covalently bound to fumagillin or TNP-470. The assay takes advantage of the fact that biotinylated fumagillin can bind to the catalytic site of the MetAP-2 enzyme only if this site has not already been derivatized by fumagillin or TNP-470. The biotinylated MetAP-2-inhibitor complex was captured on a streptavidin-coated plate and detected with a rabbit anti-MetAP-2 antibody (Zymed Laboratories Inc.). Horseradish peroxidase-conjugated anti-rabbit immunoglobulin G (IgG) was added to detect the MetAP-2 antibody immobilized to the streptavidin-coated plate with its covalently bound biotinylated fumagillin. Tetramethylbenzidine (TMB) substrate was added and the reaction was stopped by addition of sulfuric acid. Analysis was performed by determining absorption at 450 nm. Human recombinant MetAP-2 (R&D Systems), pre-bound to biotinylated fumagillin, was used to generate a standard curve.

diet-induced obese mice [5] = experiment: Very low dose oral and subcutaneous weight loss study in diet-induced obese mice (Examples 3 and 4); assay type: in vivo, C57BL/6NTac mice
From the text: as §1, §2
as §1, with “A study was undertaken to analyze whether oral administration compared to subcutaneous administration of fumagillin affected weight loss in diet-induced obese mice. Mice” for “Mice”
Fumagillin was administered to three of the diet-induced obese groups by oral gavage as a solution in 10% DMSO, at doses of 0.1 mg/kg/day, 0.3 mg/kg/day, and 1 mg/kg/day respectively. A fourth diet-induced obese group received the 10% DMSO vehicle-only by oral gavage. A fifth diet-induced obese group received fumagillin at a 1 mg/kg/day dose by subcutaneous injection of a solution in 10% DMSO. A sixth diet-induced obese group received the 10% DMSO vehicle only by subcutaneous injection. A group of lean mice was administered fumagillin by oral gavage as a solution in 10% DMSO at a dose of 1 mg/kg/day.
Another group of lean mice was administered fumagillin by subcutaneous injection of a solution in 10% DMSO at a dose of 1 mg/kg/day. Treatments were administered daily for 14 days.

T1 sequence (O08663 whole entry): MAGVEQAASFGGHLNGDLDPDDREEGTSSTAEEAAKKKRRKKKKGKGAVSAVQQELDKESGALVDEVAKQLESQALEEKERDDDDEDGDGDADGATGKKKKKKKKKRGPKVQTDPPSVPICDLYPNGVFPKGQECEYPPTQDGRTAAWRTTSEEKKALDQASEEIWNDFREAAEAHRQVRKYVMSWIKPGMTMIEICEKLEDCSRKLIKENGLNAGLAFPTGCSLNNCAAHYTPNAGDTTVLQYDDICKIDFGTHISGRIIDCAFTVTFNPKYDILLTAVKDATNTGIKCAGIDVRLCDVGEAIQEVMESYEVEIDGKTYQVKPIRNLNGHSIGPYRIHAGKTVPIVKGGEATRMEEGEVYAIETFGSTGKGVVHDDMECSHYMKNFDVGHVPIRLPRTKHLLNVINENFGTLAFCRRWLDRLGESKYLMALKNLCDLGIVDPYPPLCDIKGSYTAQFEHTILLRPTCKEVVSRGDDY

## CO[C@@H]1[C@H](OC(=O)/C=C/C=C/C=C/C=C/C(=O)O)CC[C@]2(CO2)[C@H]1[C@@]1(C)O[C@@H]1CC=C(C)C [fumagillin]
[1]
  side-effect of administration (wasting): severe weight loss
Lean mice; 1 mg/kg/day oral gavage
  weight change: no weight change
Lean mice; 1 mg/kg/day subcutaneous
  weight loss: no weight loss
[2]; male rats 1-5, time point 0 hr
  ZGN-201 Conc. in Rat Plasma, individual animals: BQL (BQL: 1 ng/mL)
[2]; male rats 1-5, time point 0.17 hr
  ZGN-201 Conc. in Rat Plasma, individual animals: BQL (BQL: 1 ng/mL)
[2]; male rats 1-5, time point 0.33 hr, listed as ZGN-201
  ZGN-201 Conc. in Rat Plasma, individual animals: 5.3 ng/mL and 1.9 ng/mL and 1.6 ng/mL and 1.8 ng/mL and 5.2 ng/mL
[2]; male rats 1-5, time point 0.5 hr, listed as ZGN-201
  ZGN-201 Conc. in Rat Plasma, individual animals: 14.3 ng/mL and 4.5 ng/mL and 3.6 ng/mL and 3 ng/mL and 11.4 ng/mL
[2]; male rats 1-5, time point 1 hr, listed as ZGN-201
  ZGN-201 Conc. in Rat Plasma, individual animals: 36.1 ng/mL and 14.5 ng/mL and 8.9 ng/mL and 3.6 ng/mL and 117.9 ng/mL
[2]; male rats 1-5, time point 2 hr, listed as ZGN-201
  ZGN-201 Conc. in Rat Plasma, individual animals: 81.2 ng/mL and 98.2 ng/mL and 125.4 ng/mL and 9.5 ng/mL and 156.4 ng/mL
[2]; male rats 1-5, time point 8 hr, listed as ZGN-201
  ZGN-201 Conc. in Rat Plasma, individual animals: 36.6 ng/mL and 47.1 ng/mL and 141.3 ng/mL and 31.6 ng/mL and 116.8 ng/mL
[2]; rats
  absorption through the stomach: poorly absorbed through the stomach
  time after administration at which absorption is first observed: 20 min
  time of peak absorption after administration: approximately 2 hrs
[2]; rats, time point 2
  maximal concentration absorbed into the blood: approximately 100 ng/ml
[2]; male, Sprague-Dawley, rat, plasma, oral, 30 mg/kg, male rats, time point 0.33 hr, read-out: ZGN-201 Conc. in Rat Plasma, Mean
  concentration at 0.33 hr: 3 ng/mL
[2]; male, Sprague-Dawley, rat, plasma, oral, 30 mg/kg, male rats, time point 0.5 hr, read-out: ZGN-201 Conc. in Rat Plasma, Mean
  concentration at 0.5 hr: 7 ng/mL
[2]; male, Sprague-Dawley, rat, plasma, oral, 30 mg/kg, male rats, time point 1 hr, read-out: ZGN-201 Conc. in Rat Plasma, Mean
  concentration at 1 hr: 36 ng/mL
[2]; male, Sprague-Dawley, rat, plasma, oral, 30 mg/kg, male rats, time point 2 hr, read-out: ZGN-201 Conc. in Rat Plasma, Mean
  concentration at 2 hr: 94 ng/mL
[2]; male, Sprague-Dawley, rat, plasma, oral, 30 mg/kg, male rats, time point 8 hr, read-out: ZGN-201 Conc. in Rat Plasma, Mean
  concentration at 8 hr: 75 ng/mL
[3]
  blood disorders developed by patients: thrombocytopenia, leukopenia, and neutropenia
diet-induced obese mice [4]; 47 days, weight plateaued at weight of lean mice
  effect on lean body mass: without substantial reduction of lean body mass
diet-induced obese mice [4]; day seventeen (from 40 g on day 1)
  average weight: 32 g
diet-induced obese mice [4]; maintained through day 47
  average weight: approximately 32 g
diet-induced obese mice [4]; throughout 47 days
  amount of food consumed: 2.2 g/day
MetAP-2
  binding to MetAP-2 in adipose tissue: binds MetAP-2 in adipose tissue
diet-induced obese mice [5]; 0.1 mg/kg/day oral gavage, end of study (14 days)
  weight loss as a percentage of pre-study weight: 7%
diet-induced obese mice [5]; 0.3 mg/kg/day oral gavage, end of study (14 days)
  weight loss as a percentage of pre-study weight: 11%
diet-induced obese mice [5]; 1 mg/kg/day oral gavage, end of study (14 days)
  weight loss as a percentage of pre-study weight: 12%
diet-induced obese mice [5]; 1 mg/kg/day subcutaneous injection, 14 days, end of study
  weight loss as a percentage of pre-study weight: 7%
diet-induced obese mice [5]; oral gavage, weight loss, not identified, concluded
  non-effective dose: below 0.1 mg/kg/day
